Test results published in PMC11200976, “Pitavastatin Calcium Confers Fungicidal Properties to Fluconazole by Inhibiting Ubiquinone Biosynthesis and Generating Reactive Oxygen Species” (Antioxidants, 2024).

test system: C. albicans; assay: Broth microdilution assay of synergistic lethality with 4 μg/mL FLC (recovery on drug-free YPD); type: cell-based, Candida albicans; conditions: not given

Q: How did the Synergistic lethal concentrations turn out when `CO[C@H]1C[C@H](O[C@@H]2/C(C)=C/C[C@@H]3C[C@@H](C[C@]4(CC[C@H](C)[C@@H](C5CCCCC5)O4)O3)OC(=O)[C@@H]3C=C(C)/C(=N/O)[C@H]4OC/C(=C\C=C\[C@@H]2C)[C@]43O)O[C@@H](C)[C@@H]1O` [Selamectin] was run?
A: 12.5 µM

same assay, conditions: concentration of the compound that is synergistically lethal with 4 μg/mL FLC; C. albicans; recovery on drug-free YPD

Q: Which Synergistic lethal concentrations does the source give for `OCCN(CCO)c1nc(N2CCCCC2)c2nc(N(CCO)CCO)nc(N3CCCCC3)c2n1` [Dipyridamole] here?
A: 100 µM

Q: With `CNCCCC1c2ccccc2C=Cc2ccccc21.Cl` [Protriptyline (hydrochloride)] as the compound, how does the Synergistic lethal concentrations read?
A: 100 µM

Q: For `N=C(NCCCCCCNC(=N)NC(=N)Nc1ccc(Cl)cc1)NC(=N)Nc1ccc(Cl)cc1.O=C(O)[C@H](O)[C@@H](O)[C@H](O)[C@H](O)CO.O=C(O)[C@H](O)[C@@H](O)[C@H](O)[C@H](O)CO` [Chlorhexidine (digluconate)], which Synergistic lethal concentrations is on record?
A: 6.25 µM

Q: Which Synergistic lethal concentrations does the source give for `CN[C@H]1CC[C@@H](c2ccc(Cl)c(Cl)c2)c2ccccc21.Cl` [Sertraline (hydrochloride)] here?
A: 25 µM

Q: With `CCCCCCc1ccc(O)cc1O` [Hexylresorcinol] as the compound, how does the Synergistic lethal concentrations read?
A: 12.5 µM

Q: Which Synergistic lethal concentrations does the source give for `CN(C)N(C)C(=O)[C@@]1(Cc2ccccc2)CCCN(C(=O)[C@@H](Cc2c[nH]c3ccccc23)NC(=O)C(C)(C)N)C1.Cl` [Anamorelin (hydrochloride)] here?
A: 100 µM

Q: With `CCCCCCCCCCCCCCCCOP(=O)([O-])OCC[N+](C)(C)C` [Miltefosine] as the compound, how does the Synergistic lethal concentrations read?
A: 100 µM

Q: With `CCCCCCCCCCCC[N+](C)(C)CCOc1ccccc1.[Br-]` [Domiphen (bromide)] as the compound, how does the Synergistic lethal concentrations read?
A: 0.1953 µM

Q: Which Synergistic lethal concentrations does the source give for `C=CC(=O)Nc1cc(Nc2nccc(-c3cn(C)c4ccccc34)n2)c(OC)cc1N(C)CCN(C)C.CS(=O)(=O)O` [Osimertinib mesylate] here?
A: 50 µM

Q: Which Synergistic lethal concentrations does the source give for `CC(C)c1nc(CN(C)C(=O)N[C@@H](CCN2CCOCC2)C(=O)N[C@H](CC[C@H](Cc2ccccc2)NC(=O)OCc2cncs2)Cc2ccccc2)cs1` [Cobicistat] here?
A: 100 µM

Q: `CC(O)C(=O)O.CCOc1ccc2nc3cc(N)ccc3c(N)c2c1.O` [Ethacridine (lactate monohydrate)] was tested. Which Synergistic lethal concentrations did it give?
A: 100 µM

Q: How did the Synergistic lethal concentrations turn out when `COC(=O)[C@H]1[C@H]2C[C@@H]3c4[nH]c5cc(OC)ccc5c4CCN3C[C@H]2C[C@@H](OC(=O)c2cc(OC)c(OC)c(OC)c2)[C@@H]1OC.Cl` [Reserpine (hydrochloride)] was run?
A: 100 µM

Q: With `CC=CC(=O)N(CC)c1ccccc1C` (mixture of isomers) [Crotamiton] as the compound, how does the Synergistic lethal concentrations read?
A: 100 µM

Q: With `Cl.Fc1ccc([C@@H]2CCNC[C@H]2COc2ccc3c(c2)OCO3)cc1` [Paroxetine (hydrochloride)] as the compound, how does the Synergistic lethal concentrations read?
A: 50 µM

Q: How did the Synergistic lethal concentrations turn out when `C=CC(=O)Nc1cc(Nc2nccc(-c3cn(C)c4ccccc34)n2)c(OC)cc1N(C)CCN(C)C.CS(=O)(=O)O.CS(=O)(=O)O` [Osimertinib (dimesylate)] was run?
A: 100 µM

Q: With `CNCC[C@@H](Oc1ccccc1C)c1ccccc1.Cl` [Atomoxetine (hydrochloride)] as the compound, how does the Synergistic lethal concentrations read?
A: 100 µM

Q: How did the Synergistic lethal concentrations turn out when `CCOC(=O)C1=C(COCCN)NC(C)=C(C(=O)OC)[C@@H]1c1ccccc1Cl.O=S(=O)(O)c1ccccc1` [Levamlodipine besylate] was run?
A: 100 µM

Q: `CC(C(=O)[O-])c1cccc(Oc2ccccc2)c1.CC(C(=O)[O-])c1cccc(Oc2ccccc2)c1.O.O.[Ca+2]` (stereo not shown) [Fenoprofen (Calcium hydrate)] was tested. Which Synergistic lethal concentrations did it give?
A: 100 µM

Q: How did the Synergistic lethal concentrations turn out when `Cl.OC(CCN1CCCCC1)(c1ccccc1)C1CCCCC1` (stereo not shown) [Trihexyphenidyl (hydrochloride)] was run?
A: 100 µM

Q: For `C[C@@H](NCCCc1cccc(C(F)(F)F)c1)c1cccc2ccccc12` [Cinacalcet], which Synergistic lethal concentrations is on record?
A: 100 µM

same assay, conditions: with 4 μg/mL FLC; tested 100 μM to 0.1953 μM; 30 °C, 48 h

Q: How did the “synergistic lethal concentration (converts FLC from fungistatic to fungicidal)” value turn out when `CC(C)n1c(/C=C/C(O)CC(O)CC(=O)O)c(-c2ccc(F)cc2)c2ccccc21` (stereo not shown) [fluvastatin sodium, reference compound] was run?
A: ≤ 6.25 µM
